Here are results for eleven molecules from patent US11319324B2, “Pyrazolo-pyrrolo-pyrimidine-dione derivatives as P2X3 inhibitors” (Bayer Aktiengesellschaft, priority 2017, dated 2022).

Bounds are passed on as bounds.

What all share (type): cell-based
For assay [1], the target named is T1, human P2X2/3 receptors (Homo sapiens, UniProt P56373+Q9UBL9).
T1 construct: expressed in transfected cells; host or cells: human astrocytoma 1321N1 (1312N1 [sic])
T1 sequence (P56373 1-397): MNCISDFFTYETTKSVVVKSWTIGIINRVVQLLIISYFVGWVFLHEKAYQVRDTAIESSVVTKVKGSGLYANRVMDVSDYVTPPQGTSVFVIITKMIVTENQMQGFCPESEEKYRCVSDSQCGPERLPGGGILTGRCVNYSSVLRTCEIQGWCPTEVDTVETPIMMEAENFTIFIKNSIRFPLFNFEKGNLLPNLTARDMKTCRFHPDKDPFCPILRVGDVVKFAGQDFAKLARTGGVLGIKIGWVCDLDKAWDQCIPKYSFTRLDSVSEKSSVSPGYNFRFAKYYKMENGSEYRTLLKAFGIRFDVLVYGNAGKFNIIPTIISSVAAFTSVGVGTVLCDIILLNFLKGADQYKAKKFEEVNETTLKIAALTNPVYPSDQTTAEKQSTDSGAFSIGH
T1 sequence (Q9UBL9 1-471): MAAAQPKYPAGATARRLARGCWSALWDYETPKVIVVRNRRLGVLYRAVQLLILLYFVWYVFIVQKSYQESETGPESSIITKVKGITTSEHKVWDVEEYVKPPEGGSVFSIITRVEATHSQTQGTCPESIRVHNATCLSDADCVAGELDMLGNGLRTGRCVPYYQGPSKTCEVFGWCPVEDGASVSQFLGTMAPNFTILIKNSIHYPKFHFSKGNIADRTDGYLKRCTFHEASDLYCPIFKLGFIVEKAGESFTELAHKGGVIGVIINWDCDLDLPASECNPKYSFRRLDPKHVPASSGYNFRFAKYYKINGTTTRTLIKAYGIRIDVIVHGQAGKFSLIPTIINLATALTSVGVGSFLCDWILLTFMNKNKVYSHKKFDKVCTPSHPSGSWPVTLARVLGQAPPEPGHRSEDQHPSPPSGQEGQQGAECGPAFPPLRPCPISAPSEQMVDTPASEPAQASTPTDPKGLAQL
Nature of the assay: Intracellular calcium measurement, antagonist activity at human P2X2/3 receptors (hP2X23 1321N1), Fluo8. As to conditions: for IC50: column 4); 1321N1 cells, human P2X2/3, Fluo8, agonist ATP at EC50; read-out: 4) hP2X2/3 IC50 [nM] (1321N1); for hP2X23/hP2X3* Selectivity (1321N1): ratio of column 4) hP2X2/3 to column 3) hP2X3, 1321N1. As to the method: (§1) 3) And 4) Intracellular Calcium Measurement to Compare Antagonist Activity at Human P2X3 Receptors (hP2X3 1321N1) and at Human P2X2/3 Receptors (hP2X23 1321N1)
(§2) The comparison of antagonistic activity at the P2X3 versus the P2X2/3 receptor of the compounds of the invention were performed by use of recombinant cell lines. These cell lines derived originally from the human astrocytoma cell line […] (Macintyre E H, Pontén J, Vatter A E. Acta Pathol Microbiol Scand A. 1972; 80(2):267-83). The cell lines are stably transfected with the human P2X3 receptor forming homotrimeric P2X3 receptors or are co-transfected with P2X2 and P2X3 forming heterotrimeric P2X2/3 receptors. Stimulation of the receptors with the agonist ATP leads to a conformational change of the receptors and influx of extracellular calcium ions through the open ion channel. The cytoplasmatic calcium transient is detected via the calcium sensitive dye Fluo8. The strength of Fluo8 fluorescence signal corresponds to the level of receptor activation. An inhibitor would decrease the signal depending on its potency and concentration. Fluorescence was measured by use of a suitable fluorescence reader.
(§3) On the day before the assay, the cells were plated in culture medium (DMEM high glucose, 10% FCS, 1% MEM non-essential amino acids, 4 mM Glutamax) in 384-well poly-D-lysine coated microtiter plates and kept in a cell incubator (96% humidity, 5% v/v CO2, 37° C.). On the day of the assay medium was exchanged by Fluo8 containing buffer and incubated for 60 minutes. Test compounds were added at various concentrations and plates were incubated for 10 minutes. In the fluorescence reader a 3 seconds baseline measurement was performed and the agonist ATP was applied at EC50 concentration of the respective receptor during constant fluorescence measurement for 120 seconds.

The target in assay [2] is T2, human P2X3 receptor (Homo sapiens, UniProt P56373).
T2 sequence (P56373 1-397): T1 sequence (P56373 1-397)
Nature of the assay: Intracellular calcium measurement to assess antagonist activity at human P2X3 receptors (hP2X3 CHO), photina luminescence. More on the design: expressed in transfected cells; host or cells: Chinese hamster ovary (CHO) cells. As to conditions: column 2), CHO cells, agonist α,β-methylene-ATP at EC50. The method, boiled down: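 CHO cells stably expressing human P2X3 and mitochondrial photina, plated the day before at 30 °C, then loaded 3 h at 37 °C in 2 mM Ca-tyrode buffer with 5 μg/ml coelenterazine. Agonist-evoked calcium luminescence read immediately; inhibition seen as signal decrease.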
On the technique in general: A change in cytosolic calcium serves as a functional read-out for many receptors and channels.

Assay [3] addresses T2, human P2X3 receptor. Briefly: Intracellular calcium measurement, antagonist activity at human P2X3 receptors (hP2X3 1321N1), Fluo8. More on the design: expressed in transfected cells; host or cells: human astrocytoma 1321N1 (1312N1 [sic]). As to conditions: column 3); 1321N1 cells, human P2X3, Fluo8, agonist ATP at EC50. Here is the method:
as §1, §2, §3

For `CCc1cc2n(CC(=O)Nc3ccc(C)cn3)c3c(c(=O)n2n1)CN(CC1CCCO1)C3=O` (centres unmarked) [Example 63], the IC50 in assay [1] is 7400 nM; in assay [2] it was 355 nM; in assay [3] it was 370 nM. Besides, the “hP2X23/hP2X3* Selectivity (1321N1)” value in assay [1] is recorded as 20.
As for `CCc1cc2n(CC(=O)Nc3ccccn3)c3c(c(=O)n2n1)CN(C(C)C)C3=O` [Example 64], the IC50 in assay [1] was over 32000 nM; in assay [2], 430 nM; in assay [3] it was 433 nM. Also, the “hP2X23/hP2X3* Selectivity (1321N1)” value in assay [1] is recorded as over 74.
In the case of `CCc1cc2n(CC(=O)Nc3ccc(C)cn3)c3c(c(=O)n2n1)CN(C(C)C)C3=O` [Example 65], the values for the IC50 in assay [1], in assay [2] and in assay [3] were 10500 nM, 200 nM and 207 nM, respectively. Moreover, in assay [1], the “hP2X23/hP2X3* Selectivity (1321N1)” value came to 51.
Taken in the same sequence, the figures for `CCc1cc2n(CC(=O)Nc3ccc(Cl)cn3)c3c(c(=O)n2n1)CN(C(C)C)C3=O` [Example 66] were 5450 nM, 81 nM, 56 nM and 98.
For the molecule `CCc1cc2n(CC(=O)Nc3ccc(Br)cn3)c3c(c(=O)n2n1)CN(C(C)C)C3=O` [Example 67], the IC50 in assay [1] was found to be 6350 nM; in assay [2], 185 nM; in assay [3], 217 nM. Besides, the “hP2X23/hP2X3* Selectivity (1321N1)” value in assay [1] is on record as 29.
With `CCc1cc2n(CC(=O)Nc3ccc(F)cn3)c3c(c(=O)n2n1)CN(CCNC(=O)OC(C)(C)C)C3=O` [Example 68, tert-butyl {2-[2-ethyl-4-{2-[(5-fluoropyridin-2-yl)amino]-2-oxoethyl}-5,8-dioxo-5,8-dihydro-4H-pyrazolo[1,5-a]pyrrolo[3,4-d]pyrimidin-6(7H)-yl]ethyl}carbamate], the figures for the IC50 in assay [1], in assay [2] and in assay [3] were 1660 nM, 17 nM and 10 nM, respectively. Moreover, in assay [1], the “hP2X23/hP2X3* Selectivity (1321N1)” value was found to be 160.
`Cc1ccc(-c2cc3n(CC(=O)Nc4ccc(F)cn4)c4c(c(=O)n3n2)CN(C(C)C)C4=O)nc1` [Example 69]: the IC50 in assay [1] turned out to be 1700 nM; in assay [2] it was 8 nM; in assay [3], 4 nM. Also, the “hP2X23/hP2X3* Selectivity (1321N1)” value in assay [1] turned out to be 447.
Turning to `CCOC(=O)c1cc2n(CC(=O)Nc3ccc(F)cn3)c3c(c(=O)n2n1)CN(C(C)C)C3=O` [Example 70, ethyl 4-{2-[(5-fluoropyridin-2-yl)amino]-2-oxoethyl}-5,8-dioxo-6-(propan-2-yl)-5,6,7,8-tetrahydro-4H-pyrazolo[1,5-a]pyrrolo[3,4-d]pyrimidine-2-carboxylate], the IC50 in assay [1] was 1800 nM; in assay [2] it was 16 nM; in assay [3], 36 nM. In addition, the “hP2X23/hP2X3* Selectivity (1321N1)” value in assay [1] was found to be 51.
`CC(C)N1Cc2c(n(CC(=O)Nc3ccc(F)cn3)c3cc(CO)nn3c2=O)C1=O` [Example 72]: the IC50 was over 32000 nM in assay [1], 120 nM in assay [2] and 235 nM in assay [3]. Moreover, the “hP2X23/hP2X3* Selectivity (1321N1)” value in assay [1] is over 136.
As for `CCc1cc2n(CC(=O)Nc3ccc(F)cn3)c3c(c(=O)n2n1)CN(C[C@H]1CCCO1)C3=O` [Example 73, 2-{2-ethyl-5,8-dioxo-6-[(2R)-tetrahydrofuran-2-ylmethyl]-5,6,7,8-tetrahydro-4H-pyrazolo[1,5-a]pyrrolo[3,4-d]pyrimidin-4-yl}-N-(5-fluoropyridin-2-yl)acetamide], the IC50 was found to be 9500 nM in assay [1], 122 nM in assay [2] and 104 nM in assay [3]. In addition, the “hP2X23/hP2X3* Selectivity (1321N1)” value in assay [1] amounted to 91.
Take `CCc1cc2n(CC(=O)Nc3ccc(F)cn3)c3c(c(=O)n2n1)CN(CC1CCOC1)C3=O` (centres unmarked) [Example 74]: the IC50 in assay [1] is over 32000 nM; in assay [2], 570 nM; in assay [3], 437 nM. The “hP2X23/hP2X3* Selectivity (1321N1)” value in assay [1] is over 73.
